# Data as given in PMC10657444, “Design and evaluation of tadpole-like conformational antimicrobial peptides” (Communications Biology, 2023).
# Values joined by “and” are separate entries in the source; they are usually repeats but may differ in a detail not shown here. Identical values can stand only once. Like-named read-outs stand apart in the source and are kept apart here. Non-standard residues stand in square brackets, D forms with d. Residues, ends and D or L forms follow the SMILES beside them.
# Legend:
# MRSA USA 300 [1] = test: Membrane depolarization assay, DiSC3(5); type: cell-based, Staphylococcus aureus
# Experimental: MRSA USA 300 and K. pneumoniae ATCC 700603 were inoculated into 5 mL of LB and shaken at 37°C and 225 rpm to OD600 ≈ 0.5 (i.e., mid-logarithmic phase). Bacteria were collected by centrifugation at 8000 rpm for 5 min, and washed twice with assay buffer (5 mM HEPES, 20 mM glucose, 10 mM KCl, pH 7.2). Bacteria were resuspended in the assay buffer to OD595 ≈ 0.1. DiSC3(5) was added to the cells at final concentration of 0.3 µM, wrapped with aluminum foil, and incubated at 37°C, until a stable fluorescence was observed. Two microliter of compound or DMSO were transferred into 96-well black walled polystyrene plates, to which was added 98 µL per well of the dye-saturated bacterial cells to initiate the reaction. The final concentration of HT2 and RI-HT2 were 1 ×, 2 ×, 4 × and 8 × MIC. Plates were immediately read on an Envison at λex = 622 nm/ λem = 670 nm with a kinetic program (reading every 1 min for 10 min) until the maximal intensity achieved was observed.
# MRSA USA 300 [2] = test: Scanning electron microscopy; type: cell-based, Staphylococcus aureus; conditions: 2 × MIC, 60 min
# Experimental: Mid-log phase bacteria (MRSA USA 300 and K. pneumoniae ATCC 700603) grown in LB broth were adjusted to a density of 5 × 10^6 CFU/mL. […] All samples were centrifuged at 8000 rpm for 5 min, washed and then resuspended in PBS. Bacterial cells were fixed with 2.5% glutaraldehyde, and then incubated at 37°C on a glass slide for 20 min. Samples were dehydrated by passing through gradient ethanol (10%, 30%, 50%, 70%, 90%, and 100%) for 5 min at each concentration. Slides were dried with an automatic critical point drying instrument (Leica EM CPD300), and a small amount of gold was sputtered onto the samples using a sputter coater system to avoid charging in the microscope. Finally, the bacteria were visualized under a field-emission scanning electron microscopy (FESEM) device (Sirion 200).
# HEK293T cells = test: MTT cytotoxicity assay; type: cell-based, human; conditions: for percent cell viability: HEK293T
# MRSA USA 300 [3] = type: cell-based, Staphylococcus aureus
# Experimental: The stability of peptides in different media was assessed using the MIC assay described above. Here, the stability of HT2 and RI-HT2 in serum, salt, and different pH were analyzed using methods previously described with some modifications. For serum stability, a solution of 10% or 20% fetal bovine serum (FBS) was made by diluting fetal bovine serum with phosphate buffer saline (PBS). HT2 and RI-HT2 were added for a final concentration of 160 µg/mL of peptide in the FBS solution, and incubation 2 h. Suspension containing no peptide was considered the negative control. The MIC of HT2 and RI-HT2 against MRSA USA 300 and K. pneumoniae ATCC 700603 were measured. For the acid stability assays, the peptides were incubated with different pH values of PBS (pH = 5.5 or 6.4) at 37 °C. These peptide mixtures were then serially diluted in a 96-well plate for the evaluation of antimicrobial activity against bacterial strains. Similarly, for salt stability, the peptides were assessed for their antimicrobial activity against MRSA USA 300 and K. pneumoniae ATCC 700603 in the presence of 150 mM NaCl.
# [4] = test system: K. pneumoniae ATCC 700603; test: Membrane permeability, SYTOX Green; type: cell-based, Klebsiella pneumoniae; conditions: for time to highest SYTOX Green fluorescence intensity: dose-dependent
# Experimental: Fluorescent probe SYTOX^TM Green (Invitrogen/ Life Technologies, S7020) was used to analyze the effect of HT2 and RI-HT2 on membrane permeability of MRSA USA 300 and K. pneumoniae ATCC 700603 as described elsewhere. SYTOX^TM Green is a DNA binding dye that is fluorescent when bound to nucleic acids and only enters cells with compromised plasma membranes. MRSA USA 300 and K. pneumoniae ATCC 700603 were cultured in LB broth to mid log phase at 37 °C and washed with PBS and resuspended (OD595 ≈ 0.1) in the same buffer. SYTOX^TM Green was added into the cell suspension with a final concentration of 5 μM and being kept in dark for 20 min. 98 µL pre-treated cell suspension was transferred into wells of 96-well glass black plates. Then, 2 µL of compound or DMSO were added to initiate the reaction. The final concentrations of HT2 and RI-HT2 were 1 ×, 2 ×, 4 × and 8 × MIC. Fluorescence strength was measured with excitation/emission wavelength of 485/528 nm every 5 min for 60 min.
# E. coli ATCC 25922 = type: cell-based, Escherichia coli
# Excerpt: Bacteria were cultivated in Luria-Bertani (LB) broth.
smiles,measurement,setting,value
CC[C@H](C)[C@H](NC(=O)[C@H](CCCNC(=N)N)NC(=O)[C@H](CCCNC(=N)N)NC(=O)[C@H](CC(C)C)NC(=O)[C@H](Cc1ccccc1)NC(=O)[C@@H](N)CCCNC(=N)N)C(=O)N[C@@H](Cc1ccccc1)C(=O)N[C@@H](Cc1ccccc1)C(=O)N[C@@H](Cc1ccccc1)C(=O)N[C@@H](Cc1ccccc1)C(N)=O [HT2] (H-RFLRRIFFFF-NH2),concentration at which DiSC3(5) fluorescence intensity changed significantly,MRSA USA 300 [1],4 × MIC
same,cell surface morphology by SEM (in words),MRSA USA 300 [2],"rough, shrunken, wrinkled and partially damaged"
same,toxicity / cytotoxicity against HEK293T cells (in words),HEK293T cells,did not present
same,percent cell viability,HEK293T cells; 6.25 µM,93.7324 and 94.5028
same,percent cell viability,HEK293T cells; 12.5 µM,96.2979 and 92.259
same,MIC against MRSA USA 300,MRSA USA 300 [3]; USA 300,3.13 µM
same,MIC against MRSA USA 300,"MRSA USA 300 [3]; USA 300, pH 5.5",3.13 µM
same,MIC against MRSA USA 300,"MRSA USA 300 [3]; USA 300, pH 6.4",3.13 µM
same,Fluorescence intensity,"[4]; 2 × MIC, time 0 min",501695 and 509033 and 502622
same,Fluorescence intensity,"[4]; 2 × MIC, time 5 min",1090890 and 1043729 and 1064139
same,Fluorescence intensity,"[4]; 2 × MIC, time 10 min",1729072 and 1765938 and 1671967
same,Fluorescence intensity,"[4]; 2 × MIC, time 15 min",2450918 and 2522662 and 2381578
same,Fluorescence intensity,"[4]; 2 × MIC, time 20 min",3050480 and 3158194 and 2985766
same,Fluorescence intensity,"[4]; 2 × MIC, time 25 min",3669210 and 3714426 and 3535044
same,Fluorescence intensity,"[4]; 2 × MIC, time 30 min",4083450 and 4189312 and 4054249
same,Fluorescence intensity,"[4]; 2 × MIC, time 35 min",4565952 and 4682018 and 4543315
same,Fluorescence intensity,"[4]; 4 × MIC, time 0 min",525974 and 544262 and 540364
same,Fluorescence intensity,"[4]; 4 × MIC, time 5 min",1702985 and 1566300 and 1596913
same,Fluorescence intensity,"[4]; 4 × MIC, time 10 min",2584709 and 2629728 and 2589896
same,Fluorescence intensity,"[4]; 4 × MIC, time 15 min",4158305 and 4176033 and 4135763
same,Fluorescence intensity,"[4]; 4 × MIC, time 20 min",5327990 and 5380046 and 5341458
same,Fluorescence intensity,"[4]; 4 × MIC, time 25 min",6471332 and 6483549 and 6409400
same,Fluorescence intensity,"[4]; 4 × MIC, time 30 min",7570513 and 7493394 and 7434627
same,Fluorescence intensity,"[4]; 4 × MIC, time 35 min",8228675 and 8284610 and 8343092
same,Fluorescence intensity,"[4]; 8 × MIC, time 0 min",870465 and 760375 and 885415
same,Fluorescence intensity,"[4]; 8 × MIC, time 5 min",1479590 and 1252173 and 1198504
same,Fluorescence intensity,"[4]; 8 × MIC, time 10 min",2304082 and 2051490 and 2261553
same,Fluorescence intensity,"[4]; 8 × MIC, time 15 min",3691170 and 2983585 and 3730581
same,Fluorescence intensity,"[4]; 8 × MIC, time 20 min",5088194 and 4586923 and 5243088
same,Fluorescence intensity,"[4]; 8 × MIC, time 25 min",6892750 and 6059584 and 6984752
same,Fluorescence intensity,"[4]; 8 × MIC, time 30 min",8250478 and 7253838 and 8382724
same,Fluorescence intensity,"[4]; 8 × MIC, time 35 min",8870007 and 7712378 and 8970308
same,Fluorescence intensity,"[4]; 8 × MIC, time 40 min",10334018
same,Fluorescence intensity,"[4]; MIC, time 0 min",550162 and 549500 and 565924
same,Fluorescence intensity,"[4]; MIC, time 5 min",788019 and 747687 and 700922
same,Fluorescence intensity,"[4]; MIC, time 10 min",953632 and 962086 and 882779
same,Fluorescence intensity,"[4]; MIC, time 15 min",1211256 and 1113347 and 1136029
same,Fluorescence intensity,"[4]; MIC, time 20 min",1429978 and 1306982 and 1354221
same,Fluorescence intensity,"[4]; MIC, time 25 min",1431312 and 1479927 and 1452172
same,Fluorescence intensity,"[4]; MIC, time 30 min",1813062 and 1687978 and 1751083
same,Fluorescence intensity,"[4]; MIC, time 35 min",1966664 and 1821317 and 1900107
same,Fluorescence intensity,"[4]; MIC, time 40 min",2166119 and 2083647 and 2111537
same,time to highest SYTOX Green fluorescence intensity,[4],≤ 40 min
same,MIC Gram- E. coli ATCC 25922,E. coli ATCC 25922,3.13 µM
CC[C@@H](C)[C@@H](NC(=O)[C@@H](Cc1ccccc1)NC(=O)[C@@H](Cc1ccccc1)NC(=O)[C@@H](Cc1ccccc1)NC(=O)[C@H](N)Cc1ccccc1)C(=O)N[C@H](CCCNC(=N)N)C(=O)N[C@H](CCCNC(=N)N)C(=O)N[C@H](CC(C)C)C(=O)N[C@H](Cc1ccccc1)C(=O)N[C@H](CCCNC(=N)N)C(N)=O [RI-HT2] (H-[dF][dF][dF][dF][dI][dR][dR][dL][dF][dR]-NH2; N-terminus assumed),concentration at which DiSC3(5) fluorescence intensity changed significantly,MRSA USA 300 [1],8 × MIC
same,cell surface morphology by SEM (in words),MRSA USA 300 [2],"rough, shrunken, wrinkled and partially damaged"
same,toxicity / cytotoxicity against HEK293T cells (in words),HEK293T cells,did not present
same,percent cell viability,HEK293T cells; 6.25 µM,88.3759
same,percent cell viability,HEK293T cells; 12.5 µM,86.6385 and 87.1349
same,MIC against MRSA USA 300,MRSA USA 300 [3]; USA 300,3.13 µM
same,MIC against MRSA USA 300,"MRSA USA 300 [3]; USA 300, pH 5.5",3.13 µM
same,MIC against MRSA USA 300,"MRSA USA 300 [3]; USA 300, pH 6.4",3.13 µM
same,Fluorescence intensity,"[4]; 2 × MIC, time 0 min",1284 and 1283 and 1287
same,Fluorescence intensity,"[4]; 2 × MIC, time 5 min",3609 and 3355 and 3304
same,Fluorescence intensity,"[4]; 2 × MIC, time 10 min",8683 and 7973 and 7881
same,Fluorescence intensity,"[4]; 2 × MIC, time 15 min",14691 and 13649 and 13959
same,Fluorescence intensity,"[4]; 2 × MIC, time 20 min",20043 and 18959 and 19659
same,Fluorescence intensity,"[4]; 2 × MIC, time 25 min",24616 and 23653 and 24172
same,Fluorescence intensity,"[4]; 2 × MIC, time 30 min",28652 and 27362 and 28393
same,Fluorescence intensity,"[4]; 2 × MIC, time 35 min",31775 and 30780 and 31899
same,Fluorescence intensity,"[4]; 4 × MIC, time 0 min",1309 and 1246 and 1149
same,Fluorescence intensity,"[4]; 4 × MIC, time 5 min",36231 and 38899 and 38058
same,Fluorescence intensity,"[4]; 4 × MIC, time 10 min",55462 and 53189 and 56098
same,Fluorescence intensity,"[4]; 4 × MIC, time 15 min",60865 and 61985 and 61514
same,Fluorescence intensity,"[4]; 4 × MIC, time 20 min",61161 and 60954 and 60896
same,Fluorescence intensity,"[4]; 4 × MIC, time 25 min",61613 and 62061 and 61850
same,Fluorescence intensity,"[4]; 4 × MIC, time 30 min",62160 and 62706 and 62610
same,Fluorescence intensity,"[4]; 4 × MIC, time 35 min",62714 and 61385 and 61471
same,Fluorescence intensity,"[4]; 8 × MIC, time 0 min",1294 and 1162 and 1248
same,Fluorescence intensity,"[4]; 8 × MIC, time 5 min",46731 and 44912 and 46760
same,Fluorescence intensity,"[4]; 8 × MIC, time 10 min",54425 and 53299 and 56314
same,Fluorescence intensity,"[4]; 8 × MIC, time 15 min",62319 and 60472 and 61594
same,Fluorescence intensity,"[4]; 8 × MIC, time 20 min",64747 and 64976 and 65277
same,Fluorescence intensity,"[4]; 8 × MIC, time 25 min",65628 and 65784 and 65550
same,Fluorescence intensity,"[4]; 8 × MIC, time 30 min",65623 and 66146 and 65510
same,Fluorescence intensity,"[4]; 8 × MIC, time 35 min",66248 and 66493 and 66011
same,Fluorescence intensity,"[4]; 8 × MIC, time 40 min",66880
same,Fluorescence intensity,"[4]; MIC, time 0 min",1004 and 1023 and 1031
same,Fluorescence intensity,"[4]; MIC, time 5 min",2234 and 2276 and 2181
same,Fluorescence intensity,"[4]; MIC, time 10 min",3718 and 3745 and 3579
same,Fluorescence intensity,"[4]; MIC, time 15 min",5602 and 5647 and 5393
same,Fluorescence intensity,"[4]; MIC, time 20 min",7978 and 7923 and 7560
same,Fluorescence intensity,"[4]; MIC, time 25 min",10663 and 10527 and 10076
same,Fluorescence intensity,"[4]; MIC, time 30 min",13390 and 13373 and 12886
same,Fluorescence intensity,"[4]; MIC, time 35 min",16041 and 16009 and 15623
same,Fluorescence intensity,"[4]; MIC, time 40 min",18514 and 18484 and 18179
same,time to highest SYTOX Green fluorescence intensity,[4],≤ 40 min
same,MIC Gram- E. coli ATCC 25922,E. coli ATCC 25922,3.13 µM
